The results in this text go back to article PMC6515479, “An Investigation on Glucuronidation Metabolite Identification, Isozyme Contribution, and Species Differences of GL-V9 In Vitro and In Vivo” (Molecules, 2019).

Type in all cases: in vitro ADME
In one data set the target is T1, rUGT1A9 (Homo sapiens, UniProt O60656).
T1 construct: purchased Corning (Woburn, MA, USA)
T1 sequence (O60656 26-530): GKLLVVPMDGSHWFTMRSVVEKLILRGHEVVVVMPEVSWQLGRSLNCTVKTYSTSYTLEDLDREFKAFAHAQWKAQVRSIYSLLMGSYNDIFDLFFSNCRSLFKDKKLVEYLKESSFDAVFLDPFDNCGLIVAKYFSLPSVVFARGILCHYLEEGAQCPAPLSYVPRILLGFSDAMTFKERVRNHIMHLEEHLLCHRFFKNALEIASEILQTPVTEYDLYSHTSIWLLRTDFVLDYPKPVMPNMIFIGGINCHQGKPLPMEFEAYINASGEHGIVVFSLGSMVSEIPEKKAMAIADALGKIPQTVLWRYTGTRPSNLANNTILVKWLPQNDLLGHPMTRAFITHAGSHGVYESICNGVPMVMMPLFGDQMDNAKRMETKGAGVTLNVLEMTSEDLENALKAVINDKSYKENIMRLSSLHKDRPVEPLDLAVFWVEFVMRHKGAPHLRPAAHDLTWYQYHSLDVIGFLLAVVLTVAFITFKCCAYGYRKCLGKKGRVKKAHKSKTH
As to the kind of experiment: Recombinant enzyme kinetics of GL-V9 glucuronidation, rUGT1A9. Conditions: formation of 5-O-glucuronide GL-V9; rUGT1A9, protein 0.06 mg/mL, 1 h at 37 °C; mean ± SD, n = 3.

Data set [1] relates to human liver microsomes (HLMs). As to the kind of experiment: Enzyme kinetics of GL-V9 glucuronidation in human liver microsomes (HLMs). The note with it: formation of 5-O-glucuronide GL-V9, protein 0.075 mg/mL, mean ± SD, n = 3. The procedure:
(§1) The composition of the incubation system (200 μL) contained liver microsomes of different species (0.1 mg protein/mL), 5 mM saccharolactone (D-saccharic acid 1,4-lactone monohydrate), 10 mM MgCl2, alamethicin (50 μg/mg protein), Tris-HCl buffer (50 mM, pH 7.4) and GL-V9 (1 μM). After 5 min of preincubation at 37 °C, UDPGA (5 mM) was added to initiate the phase II reaction. Control incubation samples were performed without UDPGA or without substrates (GL-V9). The reaction was terminated by addition of ice-cold methanol (three volumes) after incubation for 1 h at 37 °C. Samples were vortexed, centrifuged at 21,500× g for 10 min and then stored at 4 °C until HPLC-UV-TripleTOF analysis. To confirm that these metabolites are conjugates resulting from glucuronidation reaction, enzymatic hydrolysis of samples was processed. β-glucuronidase (100 KU, Sigma) was added and the hydrolysis was performed overnight at 37 °C. The control samples were carried out without β-glucuronidase under the same condition.
(§2) Enzyme kinetics experiments were carried out in triplicate among five different species, including monkey, beagle dog, rat, mouse, and human. The reaction system and operations are as same as described in Section 4.3. The solutions of GL-V9 were selected over a range of concentrations (0.05, 0.2, 0.5, 1, 2, 5, 10, 20 μM). […]

Assay in data set [2]: as above
Conditions: human, liver microsomes, pH 7.4, formation of 5-O-glucuronide GL-V9, protein 0.075 mg/mL, mean ± SD, n = 3. The procedure:
as §1, §2

Data set [3] relates to rat liver microsomes (RLMs). In words: Enzyme kinetics of GL-V9 glucuronidation in rat liver microsomes (RLMs). Conditions: formation of 5-O-glucuronide GL-V9, protein 0.1 mg/mL, mean ± SD, n = 3. The procedure:
as §1, §2

Assay in data set [4]: as above
The note with it: rat, liver microsomes, pH 7.4, formation of 5-O-glucuronide GL-V9, protein 0.1 mg/mL, mean ± SD, n = 3. The protocol:
as §1, §2

The next data set deals with T2, rUGT1A6 (Homo sapiens, UniProt P19224).
T2 construct: purchased Corning (Woburn, MA, USA)
T2 sequence (P19224 27-532): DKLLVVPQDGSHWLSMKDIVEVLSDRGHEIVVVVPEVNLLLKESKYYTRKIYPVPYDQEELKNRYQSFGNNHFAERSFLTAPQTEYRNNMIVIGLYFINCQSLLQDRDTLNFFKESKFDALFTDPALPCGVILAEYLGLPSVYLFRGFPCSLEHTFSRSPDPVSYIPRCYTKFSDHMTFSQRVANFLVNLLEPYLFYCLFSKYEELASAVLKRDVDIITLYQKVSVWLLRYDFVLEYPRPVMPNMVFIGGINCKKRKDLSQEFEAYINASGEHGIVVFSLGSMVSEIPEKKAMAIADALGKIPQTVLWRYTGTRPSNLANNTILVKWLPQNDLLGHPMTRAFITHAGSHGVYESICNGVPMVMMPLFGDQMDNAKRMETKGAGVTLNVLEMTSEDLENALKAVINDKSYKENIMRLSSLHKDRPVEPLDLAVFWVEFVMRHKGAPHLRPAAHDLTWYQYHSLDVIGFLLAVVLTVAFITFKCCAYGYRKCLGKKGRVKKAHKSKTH
In words: UGT phenotyping of GL-V9 glucuronidation, rUGT1A6. Conditions: GL-V9 0.5, 1, 5 μM, 37 °C, 1 h. The procedure: as §1
Twelve human recombinant UGT isoforms (rUGT1A1, rUGT1A3, rUGT1A4, rUGT1A6, rUGT1A7, rUGT1A8, rUGT1A9, rUGT1A10, rUGT2B4, rUGT2B7, rUGT2B15, and rUGT2B17) were employed to identify the main UGT enzyme(s) responsible for glucuronidation of GL-V9 under mixture conditions as described in Section 4.3. […]

With `COc1c(OCCCCN2CCCC2)cc(O)c2c(=O)cc(-c3ccccc3)oc12` [GL-V9], the Vmax on rUGT1A9 was determined as 148.1 ± 2.56 pmol/min/mg; in data set [1], 88.49 ± 4.21 pmol/min/mg; in data set [3], 32.72 ± 1.45 pmol/min/mg. Also, the Km at 1 h in data set [2] is 11.2 ± 0.66 µM; in data set [4] it was 6.54 ± 0.33 µM. Besides, the “Metabolism rate (glucuronidation)” value on rUGT1A6 was “too low to be biologically relevant”.
